One compound from US7943382B2, “Method for inspecting fat-soluble vitamin and/or fat-soluble food factor by saliva analysis” (Mitsubishi Chemical Medience Corporation, priority 2004, dated 2011) can be followed below.

Series [1] is described as follows: Transition of the CoQ10 level in parotid saliva depending on ingestion states of Supplement N. The class given is in vivo, human. As to the method: For the ingestion test of CoQ10, commercial supplement S containing CoQ10 of 50 mg per one tablet and commercial supplement N containing 30 mg per one tablet were used. 10 volunteers in the group S and 10 volunteers in the group N were made to ingest orally the supplement s and the supplement N respectively. For ingestion of supplement S, each volunteer was made to ingest orally two tablets at 9:00 every morning continuously for a week, and for the next week, made to ingest orally double amount, four tablets at 9:00 every morning continuously, and then stopped from ingestion for two weeks. For ingestion of supplement N, each volunteer was made to ingest orally three tablets at 9:00 every morning continuously for a week, and for the next week, made to ingest orally double amount, six tablets at 9:00 every morning continuously, and then stopped from ingestion for two weeks. As specimens in both the groups S and N, parotid saliva and heparinized plasma were collected from PM 4:00 to 5:00, total four times, that is, before and one week after ingestion, at double dose ingestion, and two weeks after discontinuation of ingestion. The volunteer had the mouth rinsed with water prior to collection, kept quiet on a chair for 5 minutes, while the volunteer accumulated saliva in the oral cavity and discharged to initialize the oral cavity, followed by collecting parotid saliva. For collection of parotid saliva, the Saliva-sampler is inserted between the teeth and the cheek near the open of the parotid gland, the volunteer sat quiet on a chair, during which saliva was collected, while the volunteer swallowed saliva, which was secreted from the sublingual gland and the submandibular gland and accumulated in the mandible, to prevent contamination with the saliva from the sublingual gland and the submandibular gland. For analysis of CoQ10 in saliva collected from the parotid gland, the Saliva-sampler with absorbed saliva was transferred to the peculiar tube holding 1 ml of 50% ethanol, to which […] of ethanol was added to have a final concentration of […]. […]

The nature of series [2]: CoQ10 level in parotid saliva of non-CoQ10 supplement-ingesting volunteers. The series is classed as in vivo, human. The note with it: 55 non-CoQ10 supplement-ingesting volunteers; 2SD 13.5 ng/ml. From the text: Therefore, a standard that can assess an individually suitable intake is required. It can be easily understood from FIG. 7 that the mean level and SD (standard deviation) of CoQ10 in parotid saliva of non-CoQ10 supplement-ingesting volunteers is useful as an example of the standard. A case that a volunteer, who is taking the CoQ10 supplement at an adequate time after meals, ingests it to increase the blood level up to a limit of the CoQ10 level of a non-ingesting volunteer, will be taken as an example for explanation. If a CoQ10 level in parotid saliva is far over the mean value +2SD, the intake is reduced, and if it is between the mean value −2SD and the mean value +2SD, the intake is increased, and the CoQ10 level is repeated inspected in saliva collected again at later dates, allowing the object to be achieved. In addition, the mean level and 2SD in FIG. 7 are obtained from the CoQ10 levels in parotid saliva of the 55 non-CoQ10 supplement-ingesting volunteers, the mean level is 17.0 ng/ml and the 2SD is 13.5 ng/ml.

Series [3] is described as follows: Adsorption of CoQ10 in saliva to absorbent materials (no extraction). The series is classed as physicochemical. As for the experimental part:
In the method of preparing the specimens in example 2, the absorbent materials for saliva were weighed. 50 mg of an absorbent was soaked in 600 μl of saliva, 20 μl of saliva was fractionated to analyze the CoQ10 concentration in saliva transuaded from the absorbent, to which 180 μl of isopropanol was added, mixed, and centrifuged at 4° C. by 1000 G for 5 minutes to remove proteins, and 20 μl of the supernatant was subjected to HPLC. The results of analysis for CoQ10 are shown in Table 1 as “CoQ10 concentrations in saliva which was obtained by steps that 50 mg of the absorbent was soaked in 600 μl of saliva and the saliva was preserved in the interspace of the absorbent”. It took about 3 minutes to secrete 1 ml of parotid saliva for the volunteers who spent little time, and 10 minutes or longer for the volunteers who spent lots of time, therefore it is practically difficult to collect without the absorbent. In this case, the fat-soluble food factors and the fat-soluble vitamins are adsorbed by any absorbent materials for saliva such as polyester, cotton and acetylcellulose. Although it is lowly absorptive, polyurethane fills water in saliva as bound water, so that condensation is caused, resulting in apparently high level (Refer to Table 1). Consequently, the adsorbed component should be extracted. […] That means, a certain amount of saliva should be absorbed to a certain amount of absorbent in the oral cavity.

Where [4] appears, read: 50 mg Acetylcellulose soaked in 600 μl of saliva.
Where [5] appears, read: 50 mg Cotton soaked in 600 μl of saliva.
Where [6] appears, read: 50 mg Polyester soaked in 600 μl of saliva.
Where [7] appears, read: 50 mg Polyurethane soaked in 600 μl of saliva.

As to `COC1=C(OC)C(=O)C(C/C=C(\C)CC/C=C(\C)CC/C=C(\C)CC/C=C(\C)CC/C=C(\C)CC/C=C(\C)CC/C=C(\C)CC/C=C(\C)CC/C=C(\C)CCC=C(C)C)=C(C)C1=O` [CoQ10, Ubidecarenone], the “transition of the CoQ10 level in parotid saliva” value in series [1] (3 tablets/day one week, 6 tablets/day next week, then two weeks discontinuation, other 7 volunteers, FIG. 7) is “increased by ingestion of the supplement with CoQ10, furthermore increased by more ingestion, and decreased after discontinuation of ingestion”; in series [1] (volunteer N9, ingestion approximately three hours after breakfast), “small increase”; in series [1] (volunteers N1 and N5 (no or often lacking breakfast), increased amount of the supplement) it was “hardly increased”. Moreover, in series [2], the “mean CoQ10 level in parotid saliva” value is 17.0 ng/mL. Moreover, the “CoQ10 concentration in saliva preserved in the interspace of the absorbent” value in series [3] (setting [4]) is 25 ng/mL; in series [3] (setting [5]), 3.4 ng/mL; in series [3] (setting [6]) it was 19.6 ng/mL; in series [3] (setting [7]) it was 59.8 ng/mL. The Collection rate in series [3] (setting [4]) is 7.3%; in series [3] (setting [5]), 10.2%; in series [3] (setting [6]) it was 58.2%; in series [3] (setting [7]) it was 178%; in series [3] (Saliva (control), no absorbent), 100%. In series [3] (Saliva (control), no absorbent), the “CoQ10 concentration in saliva” value turned out to be 33.7 ng/mL.
